Data on 17 compounds can be found in ChEMBL document CHEMBL1154445, “Identification of "toxicophoric" features for predicting drug-induced QT interval prolongation” (Eur J Med Chem, 2008).

Series [1] concerns the target Voltage-gated inwardly rectifying potassium channel KCNH2 (Homo sapiens, UniProt Q12809). Nature of the series: Inhibition of human ERG channel in HEK293 cells by voltage-clamp method. Conditions: for pIC50(uM): human.
Series [2] has as its system Cavia porcellus. Nature of the series: Cardiotoxicity in iv dosed Dunkin-Hartley guinea pig assessed as drug level required to evoke 50 ms QTc prolongation administered as 3 fold cumulative doses measured every 10 seconds at end of every 20 mins follow up period of individual dose by ECG.
The test system of series [3] is Cavia porcellus. In words: Cardiotoxicity in Dunkin-Hartley guinea pig assessed as maximal QTc prolongation time at 10 mg/kg, iv administered as 3 fold cumulative doses measured every 10 seconds at end of every 20 mins follow up period of individual dose by ECG. In kind it is toxicity, organism-based. More on the design: dose 10 mg/kg, route intravenous. Conditions: in vivo.

Series [4] concerns Cavia porcellus. Nature of the series: Cardiotoxicity in Dunkin-Hartley guinea pig assessed as maximal QTc prolongation time at 3 mg/kg, iv administered as 3 fold cumulative doses measured every 10 seconds at end of every 20 mins follow up period of individual dose by ECG. More on the design: dose 3 mg/kg, route intravenous. The class given is toxicity, organism-based. As to conditions: in vivo.

Series [5] has as its system Cavia porcellus. In words: Toxicity to Dunkin-Hartley guinea pig assessed as marked bradyarrhythmia and death at 10 mg/kg, iv. The class given is organism-based. More on the design: dose 10 mg/kg, route intravenous. As to conditions: in vivo.

A word on the IC50: it is the concentration at which inhibition is half-maximal. A high value points to a need for much substance. As usually defined, the pEC50 is −log10 of the EC50, conventionally taken in molar units.

Chain of Voltage-gated inwardly rectifying potassium channel KCNH2 (Q12809 whole entry): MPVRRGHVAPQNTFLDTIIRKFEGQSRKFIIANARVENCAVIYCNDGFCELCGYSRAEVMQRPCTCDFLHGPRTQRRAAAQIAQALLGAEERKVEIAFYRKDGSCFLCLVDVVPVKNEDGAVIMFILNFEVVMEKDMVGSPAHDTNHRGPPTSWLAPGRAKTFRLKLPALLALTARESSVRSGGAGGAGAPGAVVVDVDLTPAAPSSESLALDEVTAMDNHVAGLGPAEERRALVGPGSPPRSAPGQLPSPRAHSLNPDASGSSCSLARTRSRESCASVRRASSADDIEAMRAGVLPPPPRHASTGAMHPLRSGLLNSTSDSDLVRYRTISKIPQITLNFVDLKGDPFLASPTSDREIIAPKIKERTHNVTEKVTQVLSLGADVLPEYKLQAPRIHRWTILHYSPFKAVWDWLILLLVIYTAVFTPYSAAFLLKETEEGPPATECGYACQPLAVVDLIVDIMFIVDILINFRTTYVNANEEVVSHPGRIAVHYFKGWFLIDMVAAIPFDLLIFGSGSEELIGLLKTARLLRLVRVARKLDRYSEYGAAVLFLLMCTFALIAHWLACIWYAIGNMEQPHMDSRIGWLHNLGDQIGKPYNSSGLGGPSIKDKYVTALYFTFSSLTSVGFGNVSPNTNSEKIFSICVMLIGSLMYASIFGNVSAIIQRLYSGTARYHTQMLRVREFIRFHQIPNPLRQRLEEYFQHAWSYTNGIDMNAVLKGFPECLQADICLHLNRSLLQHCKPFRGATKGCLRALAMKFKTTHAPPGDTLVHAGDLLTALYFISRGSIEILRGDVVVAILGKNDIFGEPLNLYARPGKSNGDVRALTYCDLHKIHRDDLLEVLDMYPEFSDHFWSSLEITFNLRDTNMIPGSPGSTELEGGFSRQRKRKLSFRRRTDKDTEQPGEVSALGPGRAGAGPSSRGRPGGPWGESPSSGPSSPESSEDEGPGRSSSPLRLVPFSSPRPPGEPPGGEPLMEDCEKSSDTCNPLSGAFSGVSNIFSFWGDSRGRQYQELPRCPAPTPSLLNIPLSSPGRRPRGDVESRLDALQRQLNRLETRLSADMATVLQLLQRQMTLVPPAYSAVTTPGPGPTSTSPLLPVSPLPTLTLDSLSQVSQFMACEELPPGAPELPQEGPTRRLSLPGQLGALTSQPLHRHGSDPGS

For the compound `CN1CCN(C2=Nc3ccccc3Nc3sc(CO)cc32)CC1`, in series [1], the half-maximal inhibitory concentration (IC50) was 11.5 µM.
In series [1], `CN1CC(=O)N2[C@H](c3ccc4c(c3)OCO4)c3[nH]c4ccccc4c3C[C@@H]2C1=O` gave an IC50 of 100 µM.
In the case of `CCCN(CCC)C1CCc2cccc(O)c2C1` (stereo not given) [8-OH-DPAT], in the series on Cavia porcellus [2], the EC50 came to 4.57 µmol/kg and the pEC50 was found to be 2.95. In the series on Cavia porcellus [3], the Emax is 116.3 ms.
Turning to `COc1ccc(CCN2CCC(Nc3nc4ccccc4n3Cc3ccc(F)cc3)CC2)cc1` [ASTEMIZOLE], in the series on Cavia porcellus [2], the EC50 was 0.39 µmol/kg and the negative logarithm of the EC50 (pEC50) is 3.74.
On to `COc1cc(N)c(Cl)cc1C(=O)NC1CCN(CCCOc2ccc(F)cc2)CC1OC` (stereo not given) [CISAPRIDE], for which, in the series with Cavia porcellus [2], the EC50 was found to be 2.12 µmol/kg and the pEC50 worked out at 3. The Emax in the series with Cavia porcellus [3] came to 81.9 ms.
Take `Oc1ccc(CCN2CCC(Nc3nc4ccccc4n3Cc3ccc(F)cc3)CC2)cc1` [DESMETHEYLASTEMIZOLE]: the IC50 in series [1] was 0.001 µM.
For the compound `O=C(CCCN1CCC(O)(c2ccc(Cl)cc2)CC1)c1ccc(F)cc1` [HALOPERIDOL], in the series with Cavia porcellus [2], the EC50 amounted to 0.88 µmol/kg and the pEC50 is 3.48. Also, the Emax in the series on Cavia porcellus [3] was 123.3 ms.
`COC(=O)C1=CC[C@@H]2CC[C@H]1N2C` [METHYLECGONIDINE]: the “pIC50(uM)” value in series [1] (hek293) is given as -2.23.
Still for that read-out and setting: then `CN1CCC[C@H]1c1cccnc1` [NICOTINE], with -2.39.
With `CNCCC(Oc1ccccc1OC)c1ccccc1` (stereo not given) [NISOXETINE], the Emax in the series with Cavia porcellus [3] came to 37.5 ms.
As to `CCC1(c2ccccc2)C(=O)NC(=O)NC1=O` [PHENOBARBITAL], the “pIC50(uM)” value in series [1] (HEK293 cells expressing human ERG channel) is reported as -3.48.
As to `C=C[C@H]1C[N@@]2CC[C@H]1C[C@@H]2[C@@H](O)c1ccnc2ccc(OC)cc12` [QUINIDINE], in the series on Cavia porcellus [2], the EC50 was 8.34 µmol/kg and the pEC50 stood at 2.55. In the series with Cavia porcellus [3], the Emax was 78.6 ms.
Consider `Cc1nc2sccn2c(=O)c1CCN1CCC(=C(c2ccc(F)cc2)c2ccc(F)cc2)CC1` [RITANSERIN], for which, in the series on Cavia porcellus [2], the EC50 was 0.19 µmol/kg and the pEC50 came out at 4.05. Further, the Emax with Cavia porcellus [4] was 106.8 ms. Also, the Activity entry in the series with Cavia porcellus [5] is “Toxic”.
As for `CC(C)NCC(O)c1ccc(NS(C)(=O)=O)cc1` (stereo not given) [SOTALOL], in the series on Cavia porcellus [2], the EC50 was found to be 6.2 µmol/kg and the pEC50 worked out at 2.77. Besides, the Emax with Cavia porcellus [3] is on record as 97.3 ms.
For `O=C(CCCN1CCC2(CC1)C(=O)NCN2c1ccccc1)c1ccc(F)cc1` [SPIPERONE], the Emax with Cavia porcellus [3] was determined as 100 ms.
With `CCCCNc1ccc(C(=O)OCCN(C)C)cc1` [TETRACAINE], in the series on Cavia porcellus [2], the EC50 was determined as 9.04 µmol/kg and the pEC50 was 2.62. Moreover, the Emax in the series with Cavia porcellus [3] is 91.5 ms.
`O=C(CCCN1CCC(O)(c2cccc(C(F)(F)F)c2)CC1)c1ccc(F)cc1` [TRIFLUPERIDOL]: in the series on Cavia porcellus [2], the EC50 was 7.65 µmol/kg and the pEC50 amounted to 2.51. The Emax with Cavia porcellus [3] was 74.7 ms.
